# Source: ChEMBL document CHEMBL5518173, “Discovery of a novel anti-osteoporotic agent from marine fungus-derived structurally diverse sirenins” (Eur J Med Chem, 2024)
# Activity calls are given as the source filed them. The rule behind the calls is not given here.
# Key:
# [1] = tested on: RAW264.7; test: Inhibition of LPS-induced NF-kappaB activation in mouse RAW264.7 cells transfected with luciferase reporter gene at 20 uM pretreated with compounds for 30 mins followed by LPS stimulation for 8 hrs by luciferase reporter gene assay; type: cell-based; settings: time 8.5 hrs
# [2] = Inhibition of LPS-induced NF-kappaB activation in mouse RAW264.7 cells transfected with luciferase reporter gene pretreated with compounds for 30 mins followed by LPS stimulation for 8 hrs by luciferase reporter gene assay; type: cell-based
# [3] = tested on: BMMC; test: Anti-osteoporosis activity in mouse BMMC cells assessed as inhibition of RANKL-induced osteoclast differentiation measured after 3 days in presence of MCSF by TRAP staining based assay; type: functional, cell-based; settings: dose 5-15 µM, time 3.0 day
# [4] = tested on: BMMC; test: Cytotoxicity against mouse BMMC cells at 5 to 15 uM measured after 72 hrs by MTT assay; type: toxicity, cell-based; settings: dose 5-15 µM
# [5] = species on record: Danio rerio; test: Anti osteoporosis activity in prednisone induced Tg (ola.sp7:nlsGFP) Zebrafish model assessed as mitigation of fluorescence area reduction in zebrafish branchiostegal rays at 2.5 to 5 uM by microscopy based analysis; type: functional, organism-based; settings: dose 2.5-5 µM
# [6] = species on record: Danio rerio; test: Anti osteoporosis activity in prednisone induced Tg (ola.sp7:nlsGFP) Zebrafish model assessed as mitigation of fluorescence area reduction in zebrafish opercle at 2.5 to 5 uM by microscopy based analysis; type: functional, organism-based; settings: dose 2.5-5 µM
# [7] = species on record: Danio rerio; test: Anti osteoporosis activity in prednisone induced Tg (ola.sp7:nlsGFP) Zebrafish model assessed as mitigation of fluorescence density reduction in zebrafish branchiostegal rays at 2.5 to 5 uM by microscopy based analysis; type: functional, organism-based; settings: dose 2.5-5 µM
# [8] = species on record: Danio rerio; test: Anti osteoporosis activity in prednisone induced Tg (ola.sp7:nlsGFP) Zebrafish model assessed as mitigation of fluorescence density reduction in zebrafish opercle at 2.5 to 5 uM by microscopy based analysis; type: functional, organism-based; settings: dose 2.5-5 µM
# [9] = species on record: Danio rerio; test: Anti osteoporosis activity in Tg (ola.sp7:nlsGFP) Zebrafish model assessed as reversal of prednisone induced alp gene inhibition 2.5 to 10 uM by real-time qPCR analysis; type: functional, organism-based; settings: dose 2.5-10 µM
# [10] = species on record: Danio rerio; test: Anti osteoporosis activity in Tg (ola.sp7:nlsGFP) Zebrafish model assessed as reversal of prednisone induced bmp4 gene inhibition 2.5 to 10 uM by real-time qPCR analysis; type: functional, organism-based; settings: dose 2.5-10 µM
# [11] = species on record: Danio rerio; test: Anti osteoporosis activity in Tg (ola.sp7:nlsGFP) Zebrafish model assessed as reversal of prednisone induced bmp2a gene inhibition 2.5 to 10 uM by real-time qPCR analysis; type: functional, organism-based; settings: dose 2.5-10 µM
# [12] = species on record: Danio rerio; test: Anti osteoporosis activity in prednisolone induced Tg (ola.sp7:nlsGFP) Zebrafish model assessed as upregulation of col1a2 mRNA expression at 5 uM by real-time qPCR analysis; type: functional, organism-based
# [13] = species on record: Danio rerio; test: Anti osteoporosis activity in prednisolone induced Tg (ola.sp7:nlsGFP) Zebrafish model assessed as upregulation of col4a6 mRNA expression at 5 uM by real-time qPCR analysis; type: functional, organism-based
# [14] = species on record: Danio rerio; test: Anti osteoporosis activity in prednisolone induced Tg (ola.sp7:nlsGFP) Zebrafish model assessed as upregulation of itbg5 mRNA expression at 5 uM by real-time qPCR analysis; type: functional, organism-based
# [15] = species on record: Danio rerio; test: Anti osteoporosis activity in prednisolone induced Tg (ola.sp7:nlsGFP) Zebrafish model assessed as upregulation of frem2b mRNA expression at 5 uM by real-time qPCR analysis; type: functional, organism-based
# [16] = species on record: Danio rerio; test: Anti osteoporosis activity in prednisolone induced Tg (ola.sp7:nlsGFP) Zebrafish model assessed as upregulation of frem2a mRNA expression at 5 uM by real-time qPCR analysis; type: functional, organism-based
# [17] = species on record: Danio rerio; test: Anti osteoporosis activity in prednisolone induced Tg (ola.sp7:nlsGFP) Zebrafish model assessed as upregulation of vdrb-mRNA expression at 5 uM by real-time qPCR analysis; type: functional, organism-based
# [18] = tested on: HEK293T; test: Inhibition of cGAS/STING induced IFN-beta luciferase activation in HEK293T cells at 1 to 30 uM by Dual luciferase reporter assay; type: cell-based; settings: Homo sapiens, dose 1-30 µM
# [19] = target: T1, Serine/threonine-protein kinase TBK1 (Homo sapiens) (UniProt Q9UHD2); test: Inhibition of TBK1 induced IFN-beta luciferase activation in HEK293T cells at 1 to 30 uM by Dual luciferase reporter assay; type: cell-based; settings: dose 1-30 µM
# T1 sequence (whole entry): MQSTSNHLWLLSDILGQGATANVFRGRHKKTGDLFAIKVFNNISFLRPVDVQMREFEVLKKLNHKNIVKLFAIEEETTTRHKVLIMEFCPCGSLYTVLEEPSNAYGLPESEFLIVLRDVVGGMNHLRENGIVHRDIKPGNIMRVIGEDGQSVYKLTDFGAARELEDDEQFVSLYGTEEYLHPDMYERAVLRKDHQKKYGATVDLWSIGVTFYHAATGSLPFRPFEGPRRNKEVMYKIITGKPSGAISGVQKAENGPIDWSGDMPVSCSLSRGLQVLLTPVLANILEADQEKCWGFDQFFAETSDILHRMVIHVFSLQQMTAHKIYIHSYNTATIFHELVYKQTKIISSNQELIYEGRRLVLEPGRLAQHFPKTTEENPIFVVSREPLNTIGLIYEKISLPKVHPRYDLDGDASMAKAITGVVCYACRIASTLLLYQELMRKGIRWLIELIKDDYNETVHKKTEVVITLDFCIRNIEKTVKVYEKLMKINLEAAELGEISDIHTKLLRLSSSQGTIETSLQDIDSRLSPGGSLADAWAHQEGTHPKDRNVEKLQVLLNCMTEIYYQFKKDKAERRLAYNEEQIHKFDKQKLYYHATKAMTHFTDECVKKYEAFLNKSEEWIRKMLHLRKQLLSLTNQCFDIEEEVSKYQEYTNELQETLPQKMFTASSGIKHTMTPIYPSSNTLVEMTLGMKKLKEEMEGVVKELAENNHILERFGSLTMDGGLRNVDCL
# [20] = target: T2, Interferon regulatory factor 3 (Homo sapiens) (UniProt Q14653); test: Inhibition of IRF3 induced IFN-beta luciferase activation in HEK293T cells at 1 to 30 uM by Dual luciferase reporter assay; type: cell-based; settings: dose 1-30 µM
# T2 sequence (whole entry): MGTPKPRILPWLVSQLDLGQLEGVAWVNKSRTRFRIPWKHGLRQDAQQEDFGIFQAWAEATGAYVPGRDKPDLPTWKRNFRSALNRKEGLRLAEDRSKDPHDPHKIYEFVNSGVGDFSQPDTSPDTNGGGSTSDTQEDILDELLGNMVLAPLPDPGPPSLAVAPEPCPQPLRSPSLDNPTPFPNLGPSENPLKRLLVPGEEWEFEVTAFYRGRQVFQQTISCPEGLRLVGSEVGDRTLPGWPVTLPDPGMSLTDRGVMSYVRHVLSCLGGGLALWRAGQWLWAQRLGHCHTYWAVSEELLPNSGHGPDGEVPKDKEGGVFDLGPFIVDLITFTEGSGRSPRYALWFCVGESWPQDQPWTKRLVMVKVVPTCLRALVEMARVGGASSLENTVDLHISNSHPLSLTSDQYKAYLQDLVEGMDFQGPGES
# [21] = tested on: BMDM; test: Downregulation of IFN-beta mRNA expression in mouse BMDM cells by real-time PCR analysis; type: functional, cell-based; settings: dose 1-30 µM
# [22] = tested on: BMDM; test: Downregulation of CXCL10 mRNA expression in mouse BMDM cells by real-time PCR analysis; type: functional, cell-based; settings: dose 1-30 µM
# [23] = tested on: BMDM; test: Downregulation of TNF-alpha mRNA expression in mouse BMDM cells by real-time PCR analysis; type: functional, cell-based; settings: dose 1-30 µM
smiles,measurement,setting,value
COC(=O)CC[C@@]1(C)[C@@H]2C=C(C(=O)O)CC[C@@H]21,inhibition,[1],Active
same,IC50,[2],14.5 µM
same,Activity,[3],Dose-Dependent Effect
same,Activity,[4],Non-Toxic
same,Activity,[5],Active
same,Activity,[6],Active
same,Activity,[7],Active
same,Activity,[8],Active
same,Activity,[9],Active
same,Activity,[10],Active
same,Activity,[11],Active
same,Activity,[12],Active
same,Activity,[13],Active
same,Activity,[14],Active
same,Activity,[15],Active
same,Activity,[16],Active
same,Activity,[17],Active
same,inhibition,[18],Active
same,inhibition,[19],Active
same,inhibition,[20],Active
same,Activity,[21],Dose-Dependent Effect
same,Activity,[22],Dose-Dependent Effect
same,Activity,[23],Dose-Dependent Effect
CC(C)(O)C(=O)CC[C@@]1(C)[C@@H]2C=C(C(=O)O)CC[C@@H]21,inhibition,[1],Active
C[C@]1(C(=O)O)[C@@H]2C=C(C(=O)O)CC[C@@H]21,inhibition,[1],Active
